Source: patent US20070197509A1, “Compositions and methods for modulating gated ion channels” (PainCeptor Pharma Corporation, priority 2005, published 2007)
Entries after “also recorded” stand apart in the source; their conditions may differ.

Key:
[1] = target: T1, hASIC1a (Homo sapiens, UniProt P78348); test: Whole-cell patch clamp of acid-induced currents in cells transfected with hASIC1a; format: cell-based; design: expressed in transfected cells; conditions: for effect on acid-induced hASIC1a inward current (FIGS. 2A, 2B, 3C): whole-cell patch clamp, dose-inhibition curves
T1 sequence (P78348 1-528): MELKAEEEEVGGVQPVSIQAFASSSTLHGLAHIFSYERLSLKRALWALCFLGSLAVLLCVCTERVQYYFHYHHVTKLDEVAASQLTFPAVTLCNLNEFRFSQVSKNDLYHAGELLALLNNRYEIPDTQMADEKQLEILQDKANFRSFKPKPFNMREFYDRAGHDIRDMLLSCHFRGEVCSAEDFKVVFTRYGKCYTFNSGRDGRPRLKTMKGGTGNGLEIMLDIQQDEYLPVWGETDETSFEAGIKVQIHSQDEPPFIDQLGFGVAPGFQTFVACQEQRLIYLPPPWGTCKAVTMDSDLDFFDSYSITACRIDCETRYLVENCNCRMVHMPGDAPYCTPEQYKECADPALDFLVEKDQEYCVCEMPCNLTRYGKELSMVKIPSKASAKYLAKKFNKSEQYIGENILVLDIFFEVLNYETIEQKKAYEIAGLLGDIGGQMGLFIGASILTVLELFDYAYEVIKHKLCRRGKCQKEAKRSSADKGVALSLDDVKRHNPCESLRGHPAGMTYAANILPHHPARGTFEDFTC
Experimental: Another example of an in vitro assessment method consists of using mammalian heterologous expression systems, which are known to those skilled in the art, and include a variety of mammalian cell lines such as COS, HEK, e.g., HEK293 and/or CHO, cells. Cell lines are transfected with gated ion channel(s) and used to perform electrophysiology as follows:
All experiments are performed at room temperature (20-25° C.) in voltage clamp using conventional whole cell patch clamp methods (Neher, E., et al. (1978) Pfluegers Arch 375:219-228).
The amplifier used is the EPC-9 (HEKA-electronics, Lambrect, Germany) run by a Macintosh G3 computer via an ITC-16 interface. Experimental conditions are set with the Pulse-software accompanying the amplifier. Data is low pass filtered and sampled directly to hard-disk at a rate of 3 times the cut-off frequency.
Pipettes are pulled from borosilicate glass using a horizontal electrode puller (Zeitz-lnstrumente, Augsburg, Germany). The pipette resistances are 2-3 MOhms in the salt solutions used in these experiments. The pipette electrode is a chloridized silver wire, and the reference is a silver chloride pellet electrode (In Vivo Metric, Healdsburg, USA) fixed to the experimental chamber. The electrodes are zeroed with the open pipette in the bath just prior to sealing.
Coverslips with the cells are transferred to a 15 μl experimental chamber mounted on the stage of an inverted microscope (IMT-2, Olympus) supplied with Nomarski optics. Cells are continuously superfused with extracellular saline at a rate of 2.5 ml/min. After giga-seal formation, the whole cell configuration is attained by suction. The cells are held at a holding voltage of −60 mV and at the start of each experiment the current is continuously measured for 45 s to ensure a stable baseline. Solutions of low pH (<7) are delivered to the chamber through a custom-made gravity-driven flowpipe, the tip of which is placed approximately 50 μm from the cell. Application is triggered when the tubing connected to the flowpipe is compressed by a valve controlled by the Pulse-software. Initially, low pH (in general, pH 6.5) is applied for 5 s every 60 s. The sample interval during application is 550 μs. After stable responses are obtained, the extracellular saline as well as the low-pH solution are switched to solutions containing the compound to be tested. The compound is present until responses of repeatable amplitude are achieved. Current amplitudes are measured at the peak of the responses, and effect of the compounds is calculated as the amplitude at compound equilibrium divided by the amplitude of the current evoked by the pulse just before the compound was included.
The following salt solutions are used: extracellular solution (mM): NaCl (140), KCl (4), CaCl2 (2), MgCl2 (4), HEPES (10, pH 7.4); intracellular solution (mM): KCl (120), KOH (31), MgCl2 (1.785), EGTA (10), HEPES (10, pH 7.2). In general, compounds for testing are dissolved in 50% DMSO at 500 fold the highest concentration used.
CHO cells were transfected with hASIC1a and used to perform full dose-inhibition curves with Compound B, and Compound R. Results are expressed as a fraction of the control peak current obtained in the absence of the test substance.

[2] = target: T1, hASIC1a; test: Two-electrode voltage clamp in Xenopus laevis oocytes expressing hASIC1a (OpusExpress); format: cell-based; design: expressed in transfected cells; host or cells: Xenopus laevis oocytes, nuclear microinjection of cDNA (e.g. in pCDNA3); conditions: for effect on hASIC1a current evoked by pH 6.5 in oocytes (FIGS. 4A-4D): OpusExpress, two-electrode voltage clamp, dose-response
Method in brief: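 Two-electrode voltage clamp on Xenopus oocytes expressing homomeric hASIC1a, recorded on an automated multichannel system. Oocytes superfused with Ringer (HEPES, pH 7.4); currents evoked by MES-buffered acidic Ringer, with compound present in both control and acidic solutions, at room temperature.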

[3] = Table H, read-out: IC50 (μM) Patch Clamp (h1a)

IC50 [1, 3] [µM]	IC50 ([1]; patch clamp (PC), Tables A-F, h1a printed in some cells only, read-out: Biological Data (IC50 uM) h1a (PC)) [µM]	reversibility of the effect on hASIC1a current ([1]; washout of the compound after 1 μM)	IC50 ([2]; OpusExpress (OX), Tables A-F, h1a printed in some cells only, read-out: Biological Data (IC50 uM) h1a (OX)) [µM]	effect on hASIC1a current evoked by pH 6.5 in oocytes (FIGS. 4A-4D) [2]	IC50 ([2]; Table H, read-out: IC50 (μM) Opus Express (h1a)) [µM]	SMILES	selectivity hASIC1a versus hASIC3 ([1]; patch clamp, CHO cells, FIG. 3)	effect on acid-induced hASIC1a inward current (FIGS. 2A, 2B, 3C) [1]
–	–	–	–	dose-dependent reduction	–	Fc1cccc2c(OC3CCN(Cc4ccccc4)CC3)cc(C(F)(F)F)nc12 [Compound B, 4-(1-benzyl-piperidin-4-yloxy)-8-fluoro-2-trifluoromethyl-quinoline]	–	dose-dependently reduce hASIC1a activity; also recorded: dose-dependent reduction
> 10	–	–	–	effective modulators	–	COc1ccc(C(=O)CN2CCN(c3cc(C)nc4ccccc34)CC2)cc1 [Compound A, 1-(4-methoxy-phenyl)-2-[4-(2-methyl-quinolin-4-yl)-piperazin-1-yl]-ethanone]	–	–

SMILES	IC50 [1, 3] [µM]	IC50 ([1]; patch clamp (PC), Tables A-F, h1a printed in some cells only, read-out: Biological Data (IC50 uM) h1a (PC)) [µM]	reversibility of the effect on hASIC1a current ([1]; washout of the compound after 1 μM)	IC50 ([2]; OpusExpress (OX), Tables A-F, h1a printed in some cells only, read-out: Biological Data (IC50 uM) h1a (OX)) [µM]	effect on hASIC1a current evoked by pH 6.5 in oocytes (FIGS. 4A-4D) [2]	IC50 ([2]; Table H, read-out: IC50 (μM) Opus Express (h1a)) [µM]	selectivity hASIC1a versus hASIC3 ([1]; patch clamp, CHO cells, FIG. 3)	effect on acid-induced hASIC1a inward current (FIGS. 2A, 2B, 3C) [1]
Cc1cc(OC2CCN(Cc3ccccc3)CC2)c2ccccc2n1 [Compound R, 4-(1-benzyl-piperidin-4-yloxy)-2-methyl-quinoline]	3.8	2 to 10	fully reversed upon washout	2 to 10	effective modulators; also recorded: dose-dependent reduction	1.5	selective against specific ASIC subunits; also recorded: selective for hASIC1a over hASIC3	dose-dependently reduce hASIC1a activity; also recorded: reduced the hASIC1a pH-evoked response in a dose-dependent manner; also recorded: dose-dependent reduction
